Here are results for six compounds from patent US20110280940A1, “Di-Vanilloyl And Tri-Vanilloyl Derivatives For Use In Anti-Cancer Therapy” (priority 2008, published 2011).

The test system of test [1] is Eleven human cancer cell lines. Put plainly: MTT colorimetric assay, across the eleven human cancer cell lines. It is filed as cell-based. In outline:
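Growth is measured as remaining living cells relative to untreated controls after 72 h at 37 °C with compound at 10^-8 to 10^-4 M. Readout is MTT formazan absorbance at 570 nm.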

A further test concerns VM48 melanoma cells. Put plainly: MTT colorimetric assay, overall cell growth, VM48. It is filed as cell-based, human. As to conditions: Homo sapiens, read-out: In Vitro IC50 Growth Inhibitory Values, VM48.
A further test concerns the target T1, Aurora C kinase (Homo sapiens, UniProt Q9UQB9).
T1 construct: made in house
T1 sequence (Q9UQB9 1-309): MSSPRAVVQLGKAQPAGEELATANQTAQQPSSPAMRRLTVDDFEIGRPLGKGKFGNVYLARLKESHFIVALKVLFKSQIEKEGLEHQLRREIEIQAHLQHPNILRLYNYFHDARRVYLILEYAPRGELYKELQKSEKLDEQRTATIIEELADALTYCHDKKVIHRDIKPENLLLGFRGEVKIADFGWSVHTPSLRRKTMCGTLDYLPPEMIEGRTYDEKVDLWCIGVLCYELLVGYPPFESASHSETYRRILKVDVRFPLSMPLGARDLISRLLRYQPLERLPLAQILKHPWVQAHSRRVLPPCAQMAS
Put plainly: Radiometric protein kinase assay (33 PanQinase), Aurora C. It counts as biochemical. The conditions noted are these: for IC50: dose-response 0-100 μM, n=3, read-out: IC50: Concentration of drug needed in order to inhibit kinase activity by 50%, AurC; for inhibition at 57 µM: read-out: inhibition of Aurora C activity. The protocol:
Note that at a concentration of 20 μM of the DLT compounds, the activity of the three Aurora kinases is reduced by approximately 40-50%, whereas at concentrations of 50 μM, i.e. the concentration used in the anti-proliferation assays of example 2B, the activity of said kinases is reduced by 60-75%.
The kinase inhibition profile of DLT95-Cl at 20 μM was determined using 255 protein kinases. Residual activity values were measured by testing each compound at one concentration in duplicate in each kinase assay. A radiometric protein kinase assay (33 PanQinase®Activity Assay) was used for measuring the kinase activity of 250 protein kinases. All kinase assays were performed in 96-well flashPlates™ from Perkin Elmer (Boston, Mass., USA) in a 50 μl reaction volume. The reaction cocktail was pipetted in 4 steps in the following order: • 10 μl of non-radioactive ATP solution (in H2O) • 25 μl of assay buffer/[γ-33P]-ATP mixture • 5 μl of test sample in 10% DMSO • 10 μl of enzyme/substrate mixture
The assay for all enzymes contained 60 mM HEPES-NaOH, pH 7.5, 3 mM MgCl2, 3 mM MnCl2, 3 μM Na-orthovanadate, 1.2 mM DTT, 50 μg/ml PEG20000, 1 μM ATP/[γ-33P]-ATP (approx. […] per well), protein kinase, and substrate. All PKC assays (except the PKC-mu and the PKC-nu assay) additionally contained 1 mM CaCl2, 4 mM EDTA, 5 μg/ml Phosphatidylserine and 1 μg/ml 1,2-Dioleyl-glycerol. The MYLK2, CAMK1D, CAMK2A, CAMK2B, CAMK2D, CAMK4, CAMKK2, DAPK2 and EEF2K assays additionally contained 1 μg/ml Calmodulin and 0.5 mM CaCl2. The PRKG1 and PRKG2 assays additionally contained 1 μM cGMP.
The protein kinases were expressed either in Sf9 insect cells or in E. coli as recombinant GST-fusion proteins or as His-tagged proteins. All kinases were produced from human cDNAs. Kinases were purified by affinity chromatography using either GSH-agarose (Sigma) or Ni-NTH-agarose (Qiagen). The purity of the protein kinases was examined by SDS-PAGE/coomassie staining. The identity of the protein kinases was checked by mass spectroscopy.
The reaction cocktails were incubated at 30° C. for 60 minutes. The reaction was stopped with 50 μl of 2% (v/v) H3PO4, plates were aspirated and washed two times with 200 μl 0.9% (w/v) NaCl. All assays were performed with a BeckmanCoulter Biomek 2000/SL robotic system.
Incorporation of ^33Pi (counting of “cpm”) was determined with a microplate scintillation counter (Microbeta, Wallac).
For each kinase, the median value of the cpm of three wells with complete reaction cocktails, but without kinase, was defined as “low control” […]. This value reflects unspecific binding of radioactivity to the plate in the absence of protein kinase but in the presence of the substrate. Additionally, for each kinase the median value of the cpm of three other wells with the complete reaction cocktail, but without any compound, was taken as the “high control”, i.e. full activity in the absence of any inhibitor […]. The difference between high and low control of was taken as 100% activity for each kinase. As part of the data evaluation the low control value of each kinase was subtracted from the high control value as well as from their corresponding “compound values”. The residual activity (in %) for each compound well was calculated by using the following formula: Res. Activity (%)=100×[(cpm of compound−low control)/(high control−low control)]

Setting [2] is: mean ± SEM over the 11 human cancer cell lines, MTT, 72 hours, read-out: In Vitro IC50 Growth Inhibitory Values, m ± SEM.
The mark [3] stands for this setting: Homo sapiens, 72 h, read-out: In Vitro IC50 Growth Inhibitory Values, m ± SEM.

Where two headings read alike, the source gives them in different places.

On to `COc1cc(C(=O)OCCCCCCOC(=O)c2ccc(O)c(OC)c2)ccc1O` [DLT11, Hexane-1,6-diyl bis-(4-hydroxy-3-methoxybenzoate)], for which the IC50 in test [1] (Homo sapiens, MTT colorimetric assay, read-out: IC50 growth inhibitory values, range depending on the cancer cell line analyzed) was 22 to 71 µM; in test [1] (setting [2]), 49 µM; in the test on VM48 melanoma cells (MTT, 72 hours of incubation) it was 56 µM.

As to `COc1cc(C(=O)O)ccc1O` [vanillic acid, reference compound], the IC50 on Aurora C kinase is over 100 µM; in test [1] (setting [2]) it was over 1000 µM; with VM48 melanoma cells (MTT, 72 hours of incubation), over 1000 µM.

Turning to `O=C(OCc1cc(COC(=O)c2ccc(O)c(Cl)c2)cc(COC(=O)c2ccc(O)c(Cl)c2)c1)c1ccc(O)c(Cl)c1` [DLT95-Cl, [3,5-bis[(4-hydroxy-3-chloro-benzoyl)oxymethyl]phenyl]methyl 4-hydroxy-3-chloro-benzoate], the IC50 at Aurora C kinase was found to be 1.8 µM; in test [1] (setting [3]) it was 29 ± 1 µM; with VM48 melanoma cells (72 h), 32 µM. Also, the inhibition at 57 µM at Aurora C kinase was at least 50%.

As for `COc1cc(C(=O)OCCOC(=O)c2ccc(O)c(OC)c2)ccc1O` [DLT1, Ethane-1,2-diyl bis-(4-hydroxy-3-methoxybenzoate)], the IC50 came out at 53 µM in test [1] (setting [2]) and 53 µM in the test on VM48 melanoma cells (MTT, 72 hours of incubation).

As to `COc1cc(C(=O)OCc2cc(COC(=O)c3ccc(O)c(OC)c3)cc(COC(=O)c3ccc(O)c(OC)c3)c2)ccc1O` [DLT95, [3,5-bis[(4-hydroxy-3-methoxy-benzoyl)oxymethyl]phenyl]methyl 4-hydroxy-3-methoxy-benzoate], the IC50 on Aurora C kinase was found to be 3.3 µM.

Take `O=C(OCc1cc(COC(=O)c2ccc(O)c(F)c2)cc(COC(=O)c2ccc(O)c(F)c2)c1)c1ccc(O)c(F)c1` [DLT95-F, [3,5-bis[(4-hydroxy-3-fluoro-benzoyl)oxymethyl]phenyl]methyl 4-hydroxy-3-fluoro-benzoate]: the IC50 amounted to 4.7 µM on Aurora C kinase, 33 ± 2 µM in test [1] (setting [3]) and 61 µM with VM48 melanoma cells (72 h). At Aurora C kinase, the inhibition at 57 µM was at least 50%.
